The test system of the data set is CCRIS mutagenicity, Ames/micronucleus/aberration tests. Nature of the data set: CCRIS mutagenicity studies.
Setting [1] is: Test System: AMES SALMONELLA TYPHIMURIUM, Strain/Indicator: TA98, Metabolic Activation: NONE, Method: PREINCUBATION

In PubChem BioAssay AID1259407 (Chemical Carcinogenesis Research Information System (CCRIS), 2018) one finds mutagenic call data, which are given here for four molecules.

Each structure is given as a SMILES string. Active and inactive are the calls of the source. No rule for the calls is given here.

Consider `CCC1(c2ccccc2)C(=O)NC(=O)NC1=O`, for which the mutagenic call is, setting by setting: (Test System: AMES SALMONELLA TYPHIMURIUM, Strain/Indicator: TA97, Metabolic Activation: HAMSTER LIVER S-9, AROCLOR 1254 (10%), Method: PREINCUBATION) “inactive; negative”; (Test System: AMES SALMONELLA TYPHIMURIUM, Strain/Indicator: TA97, Metabolic Activation: NONE, Method: PREINCUBATION) “inactive; negative”; (Test System: AMES SALMONELLA TYPHIMURIUM, Strain/Indicator: TA97, Metabolic Activation: NONE, Method: STANDARD PLATE) “inactive; negative”; (Test System: AMES SALMONELLA TYPHIMURIUM, Strain/Indicator: TA97, Metabolic Activation: RAT LIVER S-9, AROCLOR 1254 (10%), Method: PREINCUBATION) “inactive; negative”; (Test System: AMES SALMONELLA TYPHIMURIUM, Strain/Indicator: TA97, Metabolic Activation: S-9, Method: STANDARD PLATE) “inactive; negative”; (Test System: AMES SALMONELLA TYPHIMURIUM, Strain/Indicator: TA98, Metabolic Activation: HAMSTER LIVER S-9, AROCLOR 1254 (10%), Method: PREINCUBATION) “inactive; negative”. The mutagenic call is “inactive; negative” under setting [1]; “inactive; negative” (Test System: AMES SALMONELLA TYPHIMURIUM, Strain/Indicator: TA98, Metabolic Activation: NONE, Method: STANDARD PLATE); “inactive; negative” (Test System: AMES SALMONELLA TYPHIMURIUM, Strain/Indicator: TA98, Metabolic Activation: RAT LIVER S-9, AROCLOR 1254 (10%), Method: PREINCUBATION); “inactive; negative” (Test System: AMES SALMONELLA TYPHIMURIUM, Strain/Indicator: TA98, Metabolic Activation: RAT, LIVER, S-9, AROCLOR 1254, Method: STANDARD PLATE); “inactive; negative” (Test System: AMES SALMONELLA TYPHIMURIUM, Strain/Indicator: TA98, Metabolic Activation: S-9, Method: STANDARD PLATE); “inactive; negative” (Test System: AMES SALMONELLA TYPHIMURIUM, Strain/Indicator: TA100, Metabolic Activation: HAMSTER LIVER S-9, AROCLOR 1254 (10%), Method: PREINCUBATION). Moreover, the mutagenic call runs as follows: (Test System: AMES SALMONELLA TYPHIMURIUM, Strain/Indicator: TA100, Metabolic Activation: NONE, Method: PREINCUBATION) “inactive; negative”; (Test System: AMES SALMONELLA TYPHIMURIUM, Strain/Indicator: TA100, Metabolic Activation: NONE, Method: STANDARD PLATE) “inactive; negative”; (Test System: AMES SALMONELLA TYPHIMURIUM, Strain/Indicator: TA100, Metabolic Activation: RAT LIVER S-9, AROCLOR 1254 (10%), Method: PREINCUBATION) “inactive; negative”; (Test System: AMES SALMONELLA TYPHIMURIUM, Strain/Indicator: TA100, Metabolic Activation: RAT, LIVER, S-9, AROCLOR 1254, Method: STANDARD PLATE) “inactive; negative”; (Test System: AMES SALMONELLA TYPHIMURIUM, Strain/Indicator: TA100, Metabolic Activation: S-9, Method: STANDARD PLATE) “inactive; negative”; (Test System: AMES SALMONELLA TYPHIMURIUM, Strain/Indicator: TA102, Metabolic Activation: NONE, Method: STANDARD PLATE) “inactive; negative”. The mutagenic call runs as follows: (Test System: AMES SALMONELLA TYPHIMURIUM, Strain/Indicator: TA102, Metabolic Activation: S-9, Method: STANDARD PLATE) “inactive; negative”; (Test System: AMES SALMONELLA TYPHIMURIUM, Strain/Indicator: TA1535, Metabolic Activation: HAMSTER LIVER S-9, AROCLOR 1254 (10%), Method: PREINCUBATION) “inactive; negative”; (Test System: AMES SALMONELLA TYPHIMURIUM, Strain/Indicator: TA1535, Metabolic Activation: NONE, Method: STANDARD PLATE) “active; positive”; (Test System: AMES SALMONELLA TYPHIMURIUM, Strain/Indicator: TA1535, Metabolic Activation: RAT LIVER S-9, AROCLOR 1254 (5 OR 10%), Method: PREINCUBATION) “inactive; negative”; (Test System: AMES SALMONELLA TYPHIMURIUM, Strain/Indicator: TA1535, Metabolic Activation: RAT, LIVER, S-9, AROCLOR 1254, Method: STANDARD PLATE) “inactive; negative”; (Test System: AMES SALMONELLA TYPHIMURIUM, Strain/Indicator: TA1537, Metabolic Activation: NONE, Method: STANDARD PLATE) “inactive; negative”. Further, the mutagenic call is “inactive; negative” (Test System: AMES SALMONELLA TYPHIMURIUM, Strain/Indicator: TA1537, Metabolic Activation: RAT, LIVER, S-9, AROCLOR 1254, Method: STANDARD PLATE); “inactive; negative” (Test System: AMES SALMONELLA TYPHIMURIUM, Strain/Indicator: TA1538, Metabolic Activation: NONE, Method: STANDARD PLATE); “inactive; negative” (Test System: AMES SALMONELLA TYPHIMURIUM, Strain/Indicator: TA1538, Metabolic Activation: RAT, LIVER, S-9, AROCLOR 1254, Method: STANDARD PLATE); “active; positive” (Test System: CHINESE HAMSTER V-79, Strain/Indicator: V-79/6-THIOGUANINE, Metabolic Activation: NONE, Method: REPLATING); “inactive; negative” (Test System: MOUSE LYMPHOMA, Strain/Indicator: L5178Y (TK+/-)/TRIFLUROTHYMIDINE, Metabolic Activation: NONE, Method: SUSPENSION/PLATE); “inactive; negative” (Test System: MOUSE LYMPHOMA, Strain/Indicator: L5178Y (TK+/TK-), Metabolic Activation: NONE, Method: SUSPENSION/PLATE). In addition, the mutagenic call (Test System: MOUSE LYMPHOMA, Strain/Indicator: L5178Y (TK+/TK-), Metabolic Activation: RAT, LIVER, S-9, AROCLOR 1254, Method: SUSPENSION/PLATE) is “active; positive”; the mutagenic call (Test System: MOUSE LYMPHOMA, Strain/Indicator: L5178Y (TK+/TK-), Metabolic Activation: RAT, LIVER, S-9, Method: SUSPENSION/PLATE) was “inactive; negative”; the mutagenic call (Test System: UDS RAT HEPATOCYTES, Strain/Indicator: BROMODEOXYURIDINE INCORP, Metabolic Activation: NONE, Method: FLOW CYTOMETRIC ANALYSIS) is “inactive; negative”; the mutagenic call (Test System: UDS RAT HEPATOCYTES, Strain/Indicator: THY INCORP, Metabolic Activation: NONE, Method: AUTORADIOGRAPHY) was “inactive; negative”; the mutagenic call (Test System: UDS RAT HEPATOCYTES, Strain/Indicator: THY INCORP, Metabolic Activation: NONE, Method: LIQUID SCINTILLATION COUNTING) is “inactive; negative”.
Regarding `OC1c2cccc3ccc4c5ccccc5cc1c4c23` (centres undefined), the mutagenic call is, setting by setting: (Test System: AMES SALMONELLA TYPHIMURIUM, Strain/Indicator: TA98, Metabolic Activation: HUMAN, LIVER, CYTOSOL, PAPS, Method: PREINCUBATION) “active; positive”; under setting [1], “active; positive”; (Test System: AMES SALMONELLA TYPHIMURIUM, Strain/Indicator: TA98, Metabolic Activation: RAT, LIVER, CYTOSOL, KCL, Method: PREINCUBATION) “inactive; negative”; (Test System: AMES SALMONELLA TYPHIMURIUM, Strain/Indicator: TA98, Metabolic Activation: RAT, LIVER, CYTOSOL, PAPS, KCL, Method: PREINCUBATION) “active; positive”; (Test System: AMES SALMONELLA TYPHIMURIUM, Strain/Indicator: TA98, Metabolic Activation: RAT, LIVER, CYTOSOL, PAPS, Method: PREINCUBATION) “active; positive”; (Test System: AMES SALMONELLA TYPHIMURIUM, Strain/Indicator: TA98, Metabolic Activation: RAT, LIVER, PAPS, KCL, Method: PREINCUBATION) “inactive; negative”. Also, the mutagenic call (Test System: AMES SALMONELLA TYPHIMURIUM, Strain/Indicator: TA98, Metabolic Activation: RAT, LIVER, S-9, NADPH, Method: PREINCUBATION) is “active; positive”.
As to `Nc1cc(N)c(N=Nc2ccc(S(=O)(=O)O)cc2S(=O)(=O)O)cc1N=Nc1ccc(-c2ccc(N/N=C3\C=CC(=O)C(C(=O)O)=C3)cc2)cc1`, the mutagenic call (Test System: AMES SALMONELLA TYPHIMURIUM, Strain/Indicator: TA98, Metabolic Activation: HAMSTER, LIVER, S-9, Method: PREINCUBATION (PRIVAL METHOD)) is “active; positive”.
On to `O=S=O`, for which the mutagenic call (End Point: IN VIVO CHROMOSOMAL ABERRATIONS, Test System: BONE MARROW CELLS, Species: MOUSE, Strain/Sex: KUNMING/MALE, FEMALE, Route: INHALATION) was “active; positive; exposure up to 5 d not effective”.
